Tests used:
[1] = system: peripheral blood lymphocytes; assay: In vivo: Blood Lymphocyte Depletion; conditions: rats, p.o.
Procedure: B. In vivo: Blood Lymphocyte Depletion
A compound of formula I or the vehicle is administered orally by gavage to rats. Tail blood for hematological monitoring is obtained on day -1 to give the baseline individual values, and at 2, 6, 24, 48 and 72 hours after application. In this assay, the compounds of formula I deplete peripheral blood lymphocytes when administered at a dose of 0.03 to 3 mg/kg. For example, following results are obtained: depletion of peripheral blood lymphocytes by more than 50%

[2] = target: T1, human S1P receptor EDG-1 (S1P1) (Homo sapiens, UniProt P21453); assay: S1P receptor profiling, GTP[γ-35S] binding SPA, S1P1; assay type: biochemical; conditions: for EC50: GTP[γ-35S] binding, membranes of transfected CHO or RH7777 cells
T1 construct: expressed in transfected cells
T1 sequence (P21453 whole entry): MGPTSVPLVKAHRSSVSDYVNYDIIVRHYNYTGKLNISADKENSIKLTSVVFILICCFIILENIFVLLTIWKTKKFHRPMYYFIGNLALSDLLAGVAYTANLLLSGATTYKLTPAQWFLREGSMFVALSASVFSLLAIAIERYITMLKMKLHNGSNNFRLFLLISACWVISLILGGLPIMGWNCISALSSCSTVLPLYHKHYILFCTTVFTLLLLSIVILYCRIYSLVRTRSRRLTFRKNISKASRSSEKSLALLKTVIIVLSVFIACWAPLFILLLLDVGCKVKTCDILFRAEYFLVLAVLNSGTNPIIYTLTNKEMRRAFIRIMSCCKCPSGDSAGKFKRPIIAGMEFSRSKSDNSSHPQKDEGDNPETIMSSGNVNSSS
Procedure: (§1) Sphingosine-1-phosphate (S1P) Receptor Profiling
(§2) Agonist activities of compounds are tested on the human SIP receptors EDG-1 (S1P1), EDG-3 (S1P3), EDG-5 (S1P2), EDG-6 (S1P4) and EDG-8 (S1P5). […] The assay technology used is SPA (scintillation proximity based assay). Briefly, DMSO dissolved compounds are serially diluted and added to SPA-bead (Amersham-Pharmacia) immobilised S1P receptor expressing membrane protein (10-20 μg/well) in the presence of 50 mM Hepes, 100 mM NaCl, 10 mM MgCl2, 10 μM GDP, 0.1% fat free BSA and 0.2 nM GTP [γ-^35S] (1200 Ci/mmol). After incubation in 96 well microtiterplates at RT for 120 min, unbound GTP [γ-^35S] is separated by a centrifugation step. Luminescence of SPA beads triggered by membrane bound GTP [γ-^35S] is quantified with a TOPcount plate reader (Packard). EC50s are calculated using standard curve fitting software.

[3] = target: T2, human S1P receptor EDG-5 (S1P2) (Homo sapiens, UniProt O95136); assay: S1P receptor profiling, GTP[γ-35S] binding SPA, S1P2; assay type: biochemical; conditions: membranes of transfected CHO or RH7777 cells
T2 construct: expressed in transfected cells
T2 sequence (O95136 whole entry): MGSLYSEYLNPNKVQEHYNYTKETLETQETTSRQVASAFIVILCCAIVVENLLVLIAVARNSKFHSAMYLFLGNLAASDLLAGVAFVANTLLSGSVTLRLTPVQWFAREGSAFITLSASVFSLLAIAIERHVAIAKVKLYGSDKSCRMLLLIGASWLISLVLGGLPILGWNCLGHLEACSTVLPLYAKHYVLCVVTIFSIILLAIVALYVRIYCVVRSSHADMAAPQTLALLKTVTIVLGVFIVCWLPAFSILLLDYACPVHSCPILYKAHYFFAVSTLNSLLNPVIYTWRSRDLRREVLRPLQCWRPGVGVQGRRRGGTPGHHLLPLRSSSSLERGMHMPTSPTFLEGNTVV
Procedure: as §1, §2

[4] = target: T3, human S1P receptor EDG-3 (S1P3) (Homo sapiens, UniProt Q99500); assay: S1P receptor profiling, GTP[γ-35S] binding SPA, S1P3; assay type: biochemical; conditions: membranes of transfected CHO or RH7777 cells
T3 construct: expressed in transfected cells
T3 sequence (Q99500 whole entry): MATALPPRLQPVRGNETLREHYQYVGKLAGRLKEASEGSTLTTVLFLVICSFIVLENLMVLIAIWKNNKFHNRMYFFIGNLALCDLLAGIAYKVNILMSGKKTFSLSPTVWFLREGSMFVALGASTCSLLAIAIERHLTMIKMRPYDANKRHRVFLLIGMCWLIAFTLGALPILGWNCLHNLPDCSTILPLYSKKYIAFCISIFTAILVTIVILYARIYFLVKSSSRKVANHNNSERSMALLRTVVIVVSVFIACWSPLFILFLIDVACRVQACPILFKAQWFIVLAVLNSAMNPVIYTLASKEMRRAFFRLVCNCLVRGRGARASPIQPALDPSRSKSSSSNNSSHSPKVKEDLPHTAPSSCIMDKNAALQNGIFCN
Procedure: as §1, §2

[5] = target: T4, human S1P receptor EDG-6 (S1P4) (Homo sapiens, UniProt O95977); assay: S1P receptor profiling, GTP[γ-35S] binding SPA, S1P4; assay type: biochemical; conditions: for EC50: GTP[γ-35S] binding, membranes of transfected CHO or RH7777 cells; for S1P4 mode of action: column beside S1P4 EC50
T4 construct: expressed in transfected cells
T4 sequence (O95977 1-384): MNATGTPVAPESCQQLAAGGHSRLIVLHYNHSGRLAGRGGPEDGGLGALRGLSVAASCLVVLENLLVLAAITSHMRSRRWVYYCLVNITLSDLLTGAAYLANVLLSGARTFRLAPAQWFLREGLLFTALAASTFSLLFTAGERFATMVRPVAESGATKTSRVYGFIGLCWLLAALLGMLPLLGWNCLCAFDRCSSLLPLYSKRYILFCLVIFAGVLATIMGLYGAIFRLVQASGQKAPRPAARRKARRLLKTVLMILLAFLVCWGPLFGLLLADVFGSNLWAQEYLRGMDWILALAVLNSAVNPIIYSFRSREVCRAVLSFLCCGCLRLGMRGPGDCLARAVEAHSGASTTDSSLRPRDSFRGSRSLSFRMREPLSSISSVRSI
Procedure: as §1, §2

[6] = target: T5, human S1P receptor EDG-8 (S1P5) (Homo sapiens, UniProt Q9H228); assay: S1P receptor profiling, GTP[γ-35S] binding SPA, S1P5; assay type: biochemical; conditions: for EC50: GTP[γ-35S] binding, membranes of transfected CHO or RH7777 cells; for S1P5 mode of action: column beside S1P5 EC50
T5 construct: expressed in transfected cells
T5 sequence (Q9H228 whole entry): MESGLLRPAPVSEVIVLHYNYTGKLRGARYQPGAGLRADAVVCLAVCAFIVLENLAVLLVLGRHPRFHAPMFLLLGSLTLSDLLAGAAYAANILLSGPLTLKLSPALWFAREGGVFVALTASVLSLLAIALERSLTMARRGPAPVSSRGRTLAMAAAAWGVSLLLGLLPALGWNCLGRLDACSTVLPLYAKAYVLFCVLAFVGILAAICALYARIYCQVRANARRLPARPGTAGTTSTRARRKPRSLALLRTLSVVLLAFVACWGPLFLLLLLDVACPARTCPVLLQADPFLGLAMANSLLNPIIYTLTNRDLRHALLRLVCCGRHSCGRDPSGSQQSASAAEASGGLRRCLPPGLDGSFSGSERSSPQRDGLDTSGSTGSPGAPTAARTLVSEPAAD
Procedure: as §1, §2

SMILES | dose giving depletion of peripheral blood lymphocytes by more than 50% ([1]; after 6 h) [mg/kg] | dose giving depletion of peripheral blood lymphocytes by more than 50% ([1]; after 48 h) [mg/kg] | S1P1 mode of action [2] | EC50 [2] [nM] | EC50 [3] [nM] | EC50 [4] [nM] | EC50 [5] [nM] | S1P4 mode of action [5] | EC50 [6] [nM] | S1P5 mode of action [6]
CCCCCOc1c(Cl)cc(CC[C@@](C)(N)CO)cc1Cl [Example 1, (R)-2-Amino-4-(3,5-dichloro-4-pentyloxy-phenyl)-2-methyl-butan-1-ol Hydrotriflate] | 0.5 | > 1 | – | – | – | – | – | – | – | –
CCCCCOc1c(Cl)cc(CC[C@@](C)(N)COP(=O)(O)O)cc1Cl [Example 4, Phosphoric acid mono-[(R)-2-amino-4-(3,5-dichloro-4-pentyloxy-phenyl)-2-methyl-butyl]ester] | – | – | Agon. | 0.2 | > 10000 | > 10000 | 0.2 | Agon. | 0.2 | Agon.
COc1cc(CC[C@@](C)(N)CO)cc(Cl)c1OCCCC(F)(F)C(F)(F)F.Cl [Example 5, (R)-2-Amino-4-[3-chloro-5-methoxy-4-(4,4,5,5,5-pentafluoro-pentyloxy)-phenyl]-2-methyl-butan-1-ol Hydrochloride] | 0.2 | > 1 | – | – | – | – | – | – | – | –
COc1cc(CC[C@@](C)(N)COP(=O)(O)O)cc(Cl)c1OCCCC(F)(F)C(F)(F)F [Example 6, Phosphoric acid mono-{(R)-2-amino-4-[3-chloro-5-methoxy-4-(4,4,5,5,5-pentafluoro-pentyloxy)-phenyl]-2-methyl-butyl}ester] | – | – | Agon. | 1.3 | > 10000 | > 10000 | 0.8 | Agon. | 0.2 | Agon.
CCOc1ccc(CCOc2c(Cl)cc(CC[C@@](C)(N)CO)cc2OC)cc1 [Example 9, (R-2-Amino-4-{3-chloro-4-[2-(4-ethoxy-phenyl)-ethoxy]-5-methoxy-phenyl}-2-methyl-butan-1-ol Hydrotriflate] | 0.2 | – | – | – | – | – | – | – | – | –
CCOc1ccc(CCOc2c(Cl)cc(CC[C@@](C)(N)COP(=O)(O)O)cc2OC)cc1 [Example 10, Phosphoric acid mono-((R)-2-amino-4-{3-chloro-4-[2-(4-ethoxy-phenyl)-ethoxy]-5-methoxy-phenyl}-2-methyl-butyl)ester] | – | – | – | 0.3 | > 10000 | 111 | > 10000 | – | 2.5 | –
